The values below come from PMC10350920, “Development of a 2,4-Diaminothiazole Series for the Treatment of Human African Trypanosomiasis Highlights the Importance of Static–Cidal Screening of Analogues” (Journal of Medicinal Chemistry, 2023).

The term EC50 denotes the concentration at which the effect is half-maximal. The term Tmax denotes the time at which the peak concentration occurs. As a reminder, the EC90 is the concentration at which the effect reaches the 90% level. Low readings indicate greater potency, high ones weaker potency.

“And” between values parts separate entries of the source, which are not always exact repeats. Identical values can stand only once. “Also recorded” adds a separate entry of the source. Like-named read-outs stand apart in the source and are kept apart here.

The test system of series [1] is BSF T. b. brucei “single marker” S427. In words: Drug sensitivity assay with bloodstream-form T. brucei. The class given is cell-based. To be noted: for EC50: mean values, number of replicates in parentheses. The protocol:
(§1) Drug sensitivity assays with BSF T. b. brucei “single marker” S427 and human MRC-5 fibroblasts were conducted as previously described.[43]

The next series relates to stage 2 HAT. In words: Stage 2 model of CNS disease. The series is classed as in vivo.
For the next series, the system named is BSF trypanosomes. In words: Static–cidal assay. The series is classed as cell-based, T. brucei. To be noted: lower concentrations cytostatic. From the text:
To complement our established T. brucei cell-based screen, in the course of these studies, we developed an assay that allows discrimination of compounds that are cytostatic from those that are cytocidal.[15] In this assay, static and cidal compounds are categorized by analysis of growth curves, with cidal compounds causing a decrease in parasite numbers. Commonly, phenotypic screens with T. brucei are end-point assays with live-cell indicators used as the final readout. In our […] assay, bloodstream trypanosomes are grown in the presence of test compounds for 3 days with a starting cell density well below the assay limit of detection, thus making it impossible to distinguish cidal from static compounds. To assess if compounds within this diaminothiazole series kill trypanosomes or merely stop parasite growth, we profiled a panel of compounds in our static–cidal assay. […] Similarly in rats, the concentration would be below the level for cidal activity.
An assay to assess initial indications of the cidal nature of the compound series was conducted as previously reported.[15] […] After 4 h, the time = 0 plate was read using a PerkinElmer Victor 3 plate reader (excitation 528 nm; emission 590 nm). […]

The next series has as its system human MRC-5 fibroblasts. In words: Mammalian cell counter screen (MRC-5). To be noted: for SI: selectivity index (EC50 MRC5/EC50 T. brucei). The series is classed as cell-based. The protocol:
as §1
(In general: A counterscreen serves to expose hits that act by an unwanted route or on another target.)

Series [2] in a line: Pharmacokinetics in NMRI mice. The series is classed as in vivo, female NMRI mice.
Protocol: To determine compound exposure, compounds were dosed by gavage (16, 38) at 10 mg kg^–1 free base (16, 38), dose volume; and 5 mL kg^–1 (16, 38), dose vehicle (10% DMSO/40% PEG400/50% Milli-Q) to female NMRI mice, n = 3/dose level (16), or Sprague Dawley rats (38). Blood samples were taken from each mouse/rat at 5, 15, and 30 min, 1, 2, 4, 6, and 8 h postdose and mixed with two volumes of distilled water. After suitable sample preparation, the concentration of the test compound in blood was determined by UPLC–MS/MS using a Quattro Premier XE (Waters, USA). Pharmacokinetic parameters were derived from the mean blood concentration–time curve using PKsolutions software v 2.0 (Summit Research Services, USA).
A further series deals with T. b. brucei S427. The series is described as follows: Stage 1 efficacy study in NMRI mice. The series is classed as in vivo. As for the experimental part: Stage 1 efficacy experiments using T. b. brucei S427 were performed as described,[44] with minor modifications. In brief, male SD rats (38) or female HRN (16) and NMRI (16, 38) mice (3–5 per group) were injected intraperitoneally with 1 × 10^4 BSFs of T. brucei. These BSFs come from a stock of cryopreserved stabilates containing 10% glycerol. The stabilate was suspended in 20 mM Hanks’ balanced salt solution with glucose to obtain a trypanosome concentration of 5 × 10^4 cells mL^–1. Each mouse was injected with 0.2 mL. […] Dose concentrations were 1.25, 2.5, 5, 7.5, 10, 30, and 50 mg kg^–1 free base (16) or 100 mg kg^–1 free base (38). The doses were prepared fresh daily, using 5% DMSO/40% PEG400/55% Milli-Q (16) or 15% solutol/85% Milli-Q (38), and the dose volume was 10 mL kg^–1. One group of three mice was an untreated control group.

The next series concerns T. brucei RES II. In words: Drug sensitivity, compound 38-resistant clone RES II. The class given is cell-based, T. b. brucei. As for the experimental part:
Drug sensitivity assays were carried out with BSF T. b. brucei “single marker” S427 or BSF T. b. brucei, Lister 427, MiTat 1.2, clone 221a 2T1 cells,[45] cells grown at 37 °C with 5% CO2 in an HMI-9T medium[46] as previously described.[47] 2T1 cells were initially maintained with 1 μg mL^–1 puromycin and 1 μg mL^–1 phleomycin prior to transfection or 2.5 μg mL^–1 hygromycin and 1 μg mL^–1 phleomycin after transfection. Induction of overexpression was achieved by the addition of 1 μg mL^–1 tetracycline to the culture medium.
Compound-resistant cell lines were generated by subculturing a clone of T. brucei in the continuous presence of 38. Starting at sublethal concentrations, drug concentrations in two independent cultures were increased in a stepwise manner, usually 2-fold. When parasites were able to survive and grow in concentrations of drugs equivalent to more than 10 times the established EC50 value, the resulting cell lines were cloned by limiting dilution in the presence of the compound. Two clones (RES I-II) were selected for further biological study. A standard alkaline lysis protocol was used to isolate genomic DNA from compound-resistant bloodstream T. brucei parasites (∼1 × 10^8). Whole genome sequencing was performed using a DNB-seq next-generation sequencing platform (BGI, Hong Kong). Sequencing reads (150 bp) were aligned to the T. brucei TREU927 genome (v39; tritrypDB) using Bowtie2[48] and Samtools[49] software. […] Samtools and BCFtools[52] (mpileup) were used to call SNP and indels compared with the wild-type starter clone, where the overall quality score (QUAL) was >100. Artemis[50] was used to analyze chromosome and gene copy number variation, as well as visualization of SNPs.

Where [3] appears, read: 100 mg kg^–1 IP, assuming linearity of exposure.

For “(4-Amino-2-(cyclohexylamino)thiazol-5-yl)(2,6-difluorophenyl)methanone [Compound 16]”, the EC50 in series [1] worked out at 0.11 µM. In addition, the “efficacy in stage 2 disease model” value in the series with stage 2 HAT is given as “not efficacious”. In addition, the “concentration that is cidal (reduction in parasite number)” value in the series with BSF trypanosomes is “above 5.6 μM”. Also, in the series with human MRC-5 fibroblasts (mean values, number of replicates in parentheses, read-out: MRC-5 EC50), the half-maximal effective concentration (EC50) came out at 1.2 µM. In the series on human MRC-5 fibroblasts, this molecule came in with an SI of 11. Besides, in series [2] (NMRI mice, IP, 10 mg kg^–1), the AUC is given as 66,000 ng mL h^–1 and the Tmax was found to be 15 min. Besides, in series [2] (NMRI mice, PO, 10 mg kg^–1), the AUC is given as 5700 ng mL h^–1, the Cmax is on record as 33 ng mL^–1 and the time of peak concentration (Tmax) was 30 min. In the series with T. b. brucei S427 (IP 10 mg kg^–1 twice daily for 4 days), the “stage 1 efficacy (cure = no parasitemia for 30 days)” value was “complete cure; also recorded: efficacious”.
Regarding `CC(C)(O)CC(=O)c1sc(Nc2ccc(F)c(F)c2)nc1N` [Compound 38, 1-(4-Amino-2-((3,4-difluorophenyl)amino)thiazol-5-yl)-3-hydroxy-3-methylbutan-1-one], in series [1] (Trypanosoma brucei, T. brucei), the EC90 was 0.131 µg/mL and 400 nM. For the same molecule, the EC50 in series [1] (Trypanosoma brucei) amounted to 0.18 µM. Further, in the series with BSF trypanosomes, the “concentration that is cidal (reduction in parasite number)” value was found to be 50 µM. Further, the SI with human MRC-5 fibroblasts was 256. In addition, the EC50 with T. brucei RES II (Trypanosoma brucei, read-out: EC50, RES II) amounted to 8.2 ± 0.49 µM. In the series with T. brucei RES II (relative to the parental wild-type, in brackets), the “fold resistance, RES II” value stood at 26. In series [2] (setting [3]), the “free Cmax in blood, extrapolated” value was 16 µM and the “free Cmax, extrapolated” value is given as 5200 ng mL^–1. For the same molecule, in series [2] (NMRI mice, IP, 50 mg kg^–1), the “Cmax (total blood)” value is 18,000 ng mL^–1. Further, the Cmax in series [2] (female, NMRI, mouse, whole blood, mice, IP, 50 mg kg^–1, read-out: total blood Cmax) worked out at 55 µM. In series [2] (female, mouse, whole blood, NMRI mice, IP, 50 mg kg^–1, read-out: AUC (converted)), the AUC was 31700 ng·h/mL. The Tmax in series [2] (female, mouse, whole blood, NMRI mice, IP, 50 mg kg^–1, read-out: Tmax) was found to be 30 min. In addition, the “free Cmax in the brain, extrapolated” value in series [2] (mice, 100 mg kg^–1 IP) was 4.6 µM. Also, the “stage 1 efficacy, parasitemia” value in the series on T. b. brucei S427 (bid 4 days 100 mg kg^–1) was “no reduction in parasitemia”.
